Tests used:
[1] = system: headache / migraine attack; conditions: cited from earlier work
migraine attacks [2] = conditions: cited from earlier work
migraine attacks [3] = conditions: subcutaneous 1-10 ng twice a week vs oral sodium valproate 500 mg daily, cited from earlier work
migraine headaches = conditions: one subject, subcutaneous, Table 5 regimen
migraine attacks [4] = conditions: subcutaneous, twice weekly, 1 μg (0.1 mL) increasing to 10 μg (1.0 mL) over 12 weeks; cited from earlier work
[5] = doses of 1 to 3 ng twice a week, P<0.0001
[6] = migraine subjects, intravenous, 0.5 mg/kg per minute for 20 min

Structure (SMILES): COc1ccc(CN(CCN(C)C)c2ccccn2)cc1 [mepyramine]
- effect of pre-treatment on histamine-induced headache and delayed migraine attack ([1]; pre-treatment before intravenous histamine in migraine subjects): abolished

Structure (SMILES): CNCCc1c[nH]cn1 [N^α-methylhistamine]
- adverse side effects (migraine attacks [2]; doses greater than 3 ng): intense headache
- duration of migraine attacks (migraine attacks [2]; [5]): significantly reduced
- frequency of migraine attacks (migraine attacks [2]; [5]): significantly reduced
- intensity of migraine attacks (migraine attacks [2]; [5]): significantly reduced
- need for rescue analgesics (migraine attacks [2]; [5]): significantly reduced

Structure (SMILES): NCCc1c[nH]cn1 [histamine, 2-(1H-imidazol-4-yl)ethanamine]
- side effect after the infusion [1, 6]: delayed migraine attack
- side effect during the infusion [1, 6]: immediate headache
- MIDAS versus sodium valproate (migraine attacks [3]): No difference
- frequency of attacks versus sodium valproate (migraine attacks [3]): No difference
- analgesic intake versus sodium valproate (migraine attacks [3]; weeks 4, 8, 12, P<0.001): significantly greater reduction
- intensity of migraine attacks versus sodium valproate (migraine attacks [3]; weeks 4, 8, 12, P<0.001): significantly greater reduction
- intensity of migraines (migraine headaches): drastically reduced
- quality of life (migraine headaches): Drastically improved
- side effects associated with the regimen (migraine headaches): no histamine-induced headaches
- frequency of migraines after the dosing regimen (migraine headaches; before the regimen about 3-5 migraines per week): ~1 migraine every 2 months
- decrease in length of migraine attacks (migraine attacks [4]): 45%
- decrease in pain intensity (migraine attacks [4]): 51%
- decrease in painkiller use (migraine attacks [4]): 52%
- reduction of headache frequency (migraine attacks [4]): 50%

— US9808444B2 (BioHealthonomics Inc., priority 2012, dated 2017)
